Measured values: paper PMC9888480, “Carboranyl-1,8-naphthalimide intercalators induce lysosomal membrane permeabilization and ferroptosis in cancer cell lines” (Journal of Enzyme Inhibition and Medicinal Chemistry, 2023)

What was measured:
HepG2 cells [1] = assay: Reduced glutathione (GSH) level measurement (Thiolite Green); assay type: cell-based, human; settings: HepG2, 24 h, total IC50 concentration
Description: The HepG2 cells were seeded at a density of 2 × 10^5 cells/well onto 12-well plates and under the same environmental conditions as the above experiments. The cells were then treated with the tested compounds at the final concentration equal to the total IC50 values for 24 h. The cellular GSH level was measured by staining with the nonfluorescent Thiolite Green dye, which emits strong fluorescence after reaction with thiols ([…]) according to the manufacturer’s protocol (AAT Bioquest, Sunnyvale, CA, USA). After incubation with the compounds (34–5 µM, 35–4.5 µM, 36–4 µM, 37–4.5 µM) the cells were detached with trypsin (Corning®) and washed twice with 1 ml of DPBS (Capricorn). Subsequently, the cells were suspended in a staining solution (50 µM) and incubated at 37 °C in a 5% CO2 environment for 30 min. After staining, the fluorescence intensity was analysed using a FACSCalibur flow cytometer with excitation at 488 nm, and the data were analysed using the FlowJo software (Becton Dickinson).

HepG2 cells [2] = assay: Intracellular Fe2+ level determination (FeRhoNox-1); assay type: cell-based, human; settings: HepG2, 24 h, total IC50 concentration
Description: The HepG2 cells were seeded at the density of 2 × 10^5 cells/well onto 12-well plates and cultured with supplemented EMEM at 37 °C under 5% CO2 saturation until 70–80% confluency was reached. […] Subsequently, the cells were detached with trypsin (Corning®), washed with 1 ml DPBS (Capricorn), and then resuspended in the growth medium with 5 µM FeRhoNox™-1 (Goryo Chemical) for 1 h. […] The cells were analysed after incubation with the dye with excitation at 488 nm using a FACSCalibur flow cytometer (Becton Dickinson), and the data were analysed using the FlowJo software (Becton Dickinson). To create a strong, single, positive red fluorescence signal, 3 mM N-acetylcysteine (2 h incubation; Sigma-Aldrich) was used.

HepG2 cells [3] = assay: Ca2+ homeostasis determination (Rhod-2 AM); assay type: cell-based, human; settings: HepG2, 24 h, total IC50 concentration
Description: Ca^2+ released was determined by the selective dye Calcium Rhod-2 AM (Thermo Fisher Scientific), which binds specifically to Ca^2+ ions that are related to an increase in dihydrorhod-2 AM concentration, and thus, an enhancement in fluorescence intensity occurred. After treatment, the cells were detached with trypsin (Corning®), washed with 1 ml of DPBS (Capricorn), and then resuspended in EMEM with 2.5 µM Rhod-2 AM. All the samples were incubated for 15 min at 37 °C in the dark, and fluorescence intensity was then analysed at an excitation/emission wavelength of 552/581 nm. The cells were analysed after incubation with the dye with excitation at 488 nm using a FACSCalibur flow cytometer (Becton Dickinson), and the data were analysed using the FlowJo software (Becton Dickinson).

HepG2 cells [4] = assay: Cell cycle analysis by flow cytometry (PI); assay type: cell-based, human; settings: HepG2, 24 h, total IC50 concentration; 5% in untreated cells
Description: The DNA content was determined using flow cytometry with PI (Sigma-Aldrich, Steinheim, Germany) staining. After incubation, the cells were trypsinized and washed twice with 1 ml of PBS (Capricorn). In the next step, the cells were fixed with an ice-cold 80% ethanol. After incubation for 1 h at 4 °C, the fixed cells were washed twice with PBS and suspended in the staining PI/RNAse A/PBS buffer (PI 50 µg/ml, RNAse A 100 µg/ml) for 30 min at 37 °C in the dark. PI (Sigma) fluorescence was measured using a FACSCalibur (Becton Dickinson), and data were analysed using the FlowJo software (Becton Dickinson).

HepG2 cells [5] = assay: Mitochondrial membrane potential (MMP) measurement (JC-1); assay type: cell-based, human; settings: HepG2, 3-h treatment, 4.5 µM; 69.9% in control cells
Description: The HepG2 cells were seeded at the density of 2 × 10^5 cells/well onto 12-well plates and cultured with EMEM at 37 °C under 5% CO2 saturation until 70–80% confluency was reached. […] After incubation, the cells were detached with trypsin (Corning®) and washed twice with 1 ml of DPBS (Capricorn), and alterations in ΔΨm were analysed using the MMP-sensitive cationic dye 5,5′,6,6′-tetrachloro-1,1′,3,3′-tetraethylbenzimidazolylcarbocyanine iodide (JC-1; Thermo Fisher Scientific), which can selectively enter mitochondria and change colour from red to green as the membrane potential decreases. The cells were stained with 2.5 µM JC-1 for 30 min at 37 °C in the dark. The maximum emission wavelengths of JC-1 monomers and “J-aggregates” were ∼ 525 (FL-1 channel) and ∼ 590 (FL-2 channel) nm, respectively. To create a strong, single positive green fluorescence signal, 3 µM FCCP was used. The mean fluorescence intensity representing the intracellular MMP level was analysed after incubation with the dye, with excitation at 488 nm using a FACSCalibur flow cytometer (Becton Dickinson), and the data were analysed using the FlowJo software (Becton Dickinson).

[6] = system: relaxed pBR 322 plasmid DNA; assay: DNA unwinding assay, relaxed plasmid as substrate; assay type: binding; settings: 10 µM, in the presence of Topo I
Text: Compounds that are able to intercalate into DNA or bind in the groove are involved in the local unwinding of the DNA, leading to a decrease in the twist number and an increase in the writhe number of the previously relaxed plasmid DNA used in the assay, resulting in a positively supercoiled DNA. If this DNA is then nicked by a topoisomerase, the enzyme will remove supercoils and relax the DNA, followed by religation. Upon removal of the compound and the enzyme by butanol extraction, the twist will increase, so the writhe will decrease, resulting in more negatively supercoiled DNA, which runs faster on agarose gel. […] This assay should be verified by performing a second reaction using a negatively supercoiled plasmid as a substrate to confirm that the compound is not simply acting as an inhibitor of the Topo I.
The DNA Unwinding Assay Kit (Cat no. DUKSR001) was purchased from Inspiralis (Norwich, UK). […] After extraction, the aqueous layer was mixed with an equal volume of STEB buffer (40% (w/v) sucrose, Tris–HCl (100 mM, pH 8), EDTA (1 mM), bromophenol blue (0.5 mg/ml)), extracted with chloroform/isoamyl alcohol (24:1), and analysed on 1% agarose gel in TAE buffer at 70 V for 2 h, followed by ethidium bromide staining. […]

| Substance | GSH level, green fluorescence change compared to control (HepG2 cells [1]) | intracellular Fe2+ level (red fluorescence intensity) (HepG2 cells [2]) | Ca2+ accumulation compared to control (HepG2 cells [3]) | accumulation of cells in G2M phase (HepG2 cells [4]) [%] | MMP, JC-1 aggregates (HepG2 cells [5]) [%] | DNA intercalation (supercoiled DNA fraction from relaxed plasmid) [6] |
| --- | --- | --- | --- | --- | --- | --- |
| 4-[(6-[(1,2-Dicarba-closo-dodecaborane-1-yl)ethylamino]hexyl)amino]-3-nitro-N-[2-(N-pyrrolidinyl)ethyl]-1,8-naphthalimide [Compound 36] | not statistically significant | lowest | slightest effect |  |  |  |
| 4-[(6-[(1,7-Dicarba-closo-dodecaborane-1-yl)ethylamino]hexyl)amino]-N-[2-(dimethylamino)ethyl]-3-nitro-1,8-naphthalimide [Compound 35] | 70% | highest ferrous level | more than threefold | 15 | 90.8 |  |
| 4-[(6-[(1,7-Dicarba-closo-dodecaborane-1-yl)ethylamino]hexyl)amino]-3-nitro-N-[2-(N-pyrrolidinyl)ethyl]-1,8-naphthalimide [Compound 37] |  |  |  | 15 |  | strongest DNA intercalator |
